Results reported in article PMC10057332, “Anticancer and Targeting Activity of Phytopharmaceutical Structural Analogs of a Natural Peptide from Trichoderma longibrachiatum and Related Peptide-Decorated Gold Nanoparticles” (International Journal of Molecular Sciences, 2023).
Where “and” joins values, the source holds several entries; their conditions need not be identical. Identical values can stand only once. Residues, ends and D or L forms follow the SMILES beside them.

Key:
[1] = test system: MDA-MB-231 cells; assay: MTS cytotoxicity in MDA-MB-231 triple negative breast cancer cells; format: cell-based, human; conditions: for IC50: cells exposed to peptaibols for 24 h, MTS assay; for killing activity in cancer cells: 10 µM peptide
Method: (§1) Cells were incubated with increasing concentrations of peptides for 24 h before assessing cell viability with MTS assay in order to create dose/response curves (Figure 4) and calculate the half maximal inhibitory concentration (IC50) values for each peptaibol (Table 3). For convenience, peptides have been subdivided based on their C-terminal substituents, i.e., leucinol (lol) or amide (-NH2).
(§2) The cytotoxicity of peptides and free Api8- and Leu4-decorated GNPs was assessed with the MTS assay (CellTiter 96® AQueous One Solution Cell Proliferation Assay, Promega, Milan, Italy) in cancer MDA-MB-231 and normal MCF-10A cells exposed to increasing concentrations of peptaibols/GNPs for 24 h. Cells (8 × 10^3 cells/well for MDA-MB-231, 6 × 10^3 cells/well for MCF-10A) were seeded in 96-well plates, and after 24 h the medium was replaced with a fresh one containing peptaibols/GNPs. For MTS assay, the medium was replaced with 100 μL of serum-free medium and 20 μL of the CellTiter 96® reagent. After 60–90 min, the absorbance at 492 nm was measured with a Multiskan Go (Thermo Fischer Scientific, Carlsbad, CA, USA) plate reader and cell viability was expressed as a function of absorbance relative to that of control cells (considered as 100% viability). IC50 values for each peptaibol treatment were extrapolated from the relative dose–response curves obtained with the software GraphPad Prism 9.5.

[2] = test system: MCF-10A cells; assay: MTS cytotoxicity in normal epithelial breast MCF-10A cells; format: cell-based, human; conditions: for IC50: cells exposed to peptaibols for 24 h, MTS assay; for effect on viability of MCF-10A cells: peptide concentration range tested, 24 h, MTS
Method: as §1, §2

[3] = MCF-10A cells, 1 h at 37 °C, CD at 25 °C
Method: The CD profile of Api8-NH2 and Leu4-NH2 was also acquired in the presence of cells (cell line MCF-10A) (Figure 1). This study also provided information on the stability of the peptides in the biological environment [63].
Figure 1 CD profiles of Leu4-NH2 and Api8-NH2 acquired at 25 °C in the presence of MCF-10A epithelial breast cells. (Peptide concentrations: Api8, 5 × 10^−5 M; Leu4, 1 × 10^−5 M).
The CD spectra were obtained on a Jasco (Tokyo, Japan) J-1500 spectropolarimeter. Fused quartz cells (Hellma, Mühlheim, Germany) of 1 mm path length were used. The values are expressed in terms of [θ]T, total molar ellipticity (deg∙cm^2∙dmol^−1). […] The CD measurements in cells were performed as follows: 1 × 10^6 cells were harvested, washed twice in PBS and incubated in the same buffer with peptides (concentrations: Api8, 5 × 10^−5 M; Leu4, 1 × 10^−5 M) for 1 h at 37°C in a rotating mixer before recording the CD spectra.

[4] = test system: MDA-MB-231 with respect to MCF-10A cells; assay: Flow cytometry uptake of FITC-conjugated peptaibols; format: cell-based, human; conditions: highest concentration tested, 24 h incubation
Method: For this study, we decided to focus our attention on the unique, noncytotoxic, yet membrane-active peptides Leu4-NH2 and Api8-NH2 to study them as potential cancer-targeting agents. […] As reference, K6-NH2 internalization was measured as well, since for this specific peptide, previous studies already reported an increased uptake in tumor cells (HDLM-2 and A2780 tumor cell lines) with respect to normal healthy cells, such as peripheral blood mononuclear cells (PBMCs) or fibroblasts.
Figure 5 Flow cytometry measurements of FITC-conjugated peptaibols in MDA-MB-231 (a) and MCF-10 (b) cells after a 24 h incubation period.
Flow cytometry and peptides conjugated with FITC, namely Api8-FITC and Leu4-FITC, were used to assess the capacity of peptaibols to be internalized by breast cancer cells, Briefly, 8 × 10^4 MDA-MB-231 and MCF-10A cells/well were grown in 24-well plates for 24 h and then incubated for 24 h with 5 μM peptaibols. […] Those washings both before cell detachment from plates and after cell recovery and centrifugation removed any peptides not strongly associated with cell plasma membranes, assuring FITC signals measured by flow cytometry were referred exclusively to internalized peptides. Cells were centrifuged and resuspended in Versene before measuring FITC fluorescence using a BD Fortessa^TM X-20 flow cytometer (Becton Dickinson, San Jose, CA, USA). […]

Row | Compound | IC50 [1] | effect on viability of MDA-MB-231 cells ([1]; peptide concentration range tested, 24 h, MTS) | IC50 [2] [µM] | effect on viability of MCF-10A cells [2] | stability in the presence of cells (CD) [3] | killing activity in cancer cells ([1]; 24 h, MTS) | internalization in MDA-MB-231 with respect to MCF-10A cells [4]
1 | CCCCCCCC(=O)NC(C)(C)C(=O)NCC(=O)N[C@@H](CC(C)C)C(=O)NC(C)(C)C(=O)NCC(=O)NCC(=O)N[C@@H](CC(C)C)C(=O)NC1(C(=O)NCC(=O)N[C@H](C(=O)N[C@@H](CC(C)C)C(N)=O)[C@@H](C)CC)CCNCC1 [Api8-NH2, Oct-Aib^1-Gly-Leu-Aib^4-Gly-Gly-Leu-Api^8-Gly-Ile-Leu^11-NH2] (HELM PEPTIDE1{[CCCCCCCC(=O)[*:2]].[Aib].G.L.[Aib].G.G.L.[O=C(C1(N[*:1])CCNCC1)[*:2]].G.I.L.[am]}$$$$V2.0) | > 20 µM | did not significantly affect the viability | > 20 | did not significantly affect the viability | stability of the peptides in the presence of cells | – | –
2 | CCCCCCCC(=O)NC(C)(C)C(=O)N[C@@H](CCCCN)C(=O)N[C@@H](CC(C)C)C(=O)NC(C)(C)C(=O)NCC(=O)NCC(=O)N[C@@H](CC(C)C)C(=O)NC(C)(C)C(=O)NCC(=O)N[C@H](C(=O)N[C@@H](CC(C)C)C(N)=O)[C@@H](C)CC [K2-NH2, Oct-Aib^1-Lys-Leu-Aib^4-Gly-Gly-Leu-Aib^8-Gly-Ile-Leu^11-NH2] (HELM PEPTIDE1{[CCCCCCCC(=O)[*:2]].[Aib].K.L.[Aib].G.G.L.[Aib].G.I.L.[am]}$$$$V2.0) | 9 µM | – | 17 | – | – | about 90% | –
3 | CCCCCCCC(=O)NC(C)(C)C(=O)N[C@@H](CCCCN)C(=O)N[C@@H](CC(C)C)C(=O)NC(C)(C)C(=O)N[C@@H](CCCCN)C(=O)NCC(=O)N[C@@H](CC(C)C)C(=O)NC(C)(C)C(=O)NCC(=O)N[C@H](C(=O)N[C@H](CO)CC(C)C)[C@@H](C)CC [K25-Lol, Oct-Aib^1-Lys-Leu-Aib^4-Lys-Gly-Leu-Aib^8-Gly-Ile-Lol^11] (HELM PEPTIDE1{[CCCCCCCC(=O)[*:2]].[Aib].K.L.[Aib].K.G.L.[Aib].G.I.[CC(C)C[C@@H](CO)N[*:1]]}$$$$V2.0) | 9 µM | – | 16 | – | – | ~60% | –
4 | CCCCCCCC(=O)NC(C)(C)C(=O)NCC(=O)N[C@@H](CC(C)C)C(=O)NC(C)(C)C(=O)N[C@@H](CCCCN)C(=O)N[C@@H](CCCCN)C(=O)N[C@@H](CC(C)C)C(=O)NC(C)(C)C(=O)NCC(=O)N[C@H](C(=O)N[C@H](CO)CC(C)C)[C@@H](C)CC [K56-Lol, Oct-Aib^1-Gly-Leu-Aib^4-Lys-Lys-Leu-Aib^8-Gly-Ile-Lol^11] | 12 µM | – | 18 | – | – | ~20% | –
5 | CCCCCCCC(=O)NC(C)(C)C(=O)N[C@@H](CCCCN)C(=O)N[C@@H](CC(C)C)C(=O)NC(C)(C)C(=O)N[C@@H](CCCCN)C(=O)NCC(=O)N[C@@H](CC(C)C)C(=O)NC(C)(C)C(=O)N[C@@H](CCCCN)C(=O)N[C@H](C(=O)N[C@H](CO)CC(C)C)[C@@H](C)CC [K259-Lol, Oct-Aib^1-Lys-Leu-Aib^4-Lys-Gly-Leu-Aib^8-Lys-Ile-Lol^11] (HELM PEPTIDE1{[CCCCCCCC(=O)[*:2]].[Aib].K.L.[Aib].K.G.L.[Aib].K.I.[CC(C)C[C@@H](CO)N[*:1]]}$$$$V2.0) | 10 µM | – | 15 | – | – | ~60% | –
6 | CCCCCCCC(=O)NC(C)(C)C(=O)N[C@@H](CCCCN)C(=O)N[C@@H](CC(C)C)C(=O)NC(C)(C)C(=O)N[C@@H](CCCCN)C(=O)NCC(=O)N[C@@H](CC(C)C)C(=O)NC(C)(C)C(=O)N[C@@H](CCCCN)C(=O)N[C@H](C(=O)N[C@@H](CC(C)C)C(N)=O)[C@@H](C)CC [K259-NH2, Oct-Aib^1-Lys-Leu-Aib^4-Lys-Gly-Leu-Aib^8-Lys-Ile-Leu^11-NH2] (HELM PEPTIDE1{[CCCCCCCC(=O)[*:2]].[Aib].K.L.[Aib].K.G.L.[Aib].K.I.L.[am]}$$$$V2.0) | ~13 µM and 13 µM | – | 17 | – | – | – | –
7 | CCCCCCCC(=O)NC(C)(C)C(=O)N[C@@H](CCCCN)C(=O)N[C@@H](CC(C)C)C(=O)NC(C)(C)C(=O)N[C@@H](CCCCN)C(=O)N[C@@H](CCCCN)C(=O)N[C@@H](CC(C)C)C(=O)NC(C)(C)C(=O)N[C@@H](CCCCN)C(=O)N[C@H](C(=O)N[C@H](CO)CC(C)C)[C@@H](C)CC [K2569-Lol, Oct-Aib^1-Lys-Leu-Aib^4-Lys-Lys-Leu-Aib^8-Lys-Ile-Lol^11] (HELM PEPTIDE1{[CCCCCCCC(=O)[*:2]].[Aib].K.L.[Aib].K.K.L.[Aib].K.I.[CC(C)C[C@@H](CO)N[*:1]]}$$$$V2.0) | 12 µM | – | 14 | – | – | ~30% | –
8 | CCCCCCCC(=O)NC(C)(C)C(=O)NCC(=O)N[C@@H](CC(C)C)C(=O)N[C@@H](CC(C)C)C(=O)NCC(=O)NCC(=O)N[C@@H](CC(C)C)C(=O)NC(C)(C)C(=O)NCC(=O)N[C@H](C(=O)N[C@H](CO)CC(C)C)[C@@H](C)CC [Leu4-Lol, reference compound] (HELM PEPTIDE1{[CCCCCCCC(=O)[*:2]].[Aib].G.L.L.G.G.L.[Aib].G.I.[CC(C)C[C@@H](CO)N[*:1]]}$$$$V2.0) | > 20 µM | – | > 20 | did not significantly affect the viability | – | – | –
9 | CCCCCCCC(=O)NC(C)(C)C(=O)NCC(=O)N[C@@H](CC(C)C)C(=O)N[C@@H](CC(C)C)C(=O)NCC(=O)NCC(=O)N[C@@H](CC(C)C)C(=O)NC(C)(C)C(=O)NCC(=O)N[C@H](C(=O)N[C@@H](CC(C)C)C(N)=O)[C@@H](C)CC [Leu4-NH2, Oct-Aib^1-Gly-Leu-Leu^4-Gly-Gly-Leu-Aib^8-Gly-Ile-Leu^11-NH2] (HELM PEPTIDE1{[CCCCCCCC(=O)[*:2]].[Aib].G.L.L.G.G.L.[Aib].G.I.L.[am]}$$$$V2.0) | > 20 µM | – | > 20 | did not significantly affect the viability | stability of the peptides in the presence of cells | – | –
10 | Oct-Aib^1-Gly-Leu-Aib^4-Gly-Gly-Leu-Api^8-Gly-Ile-Leu^11-NH-(CH2)2-NH-FITC [Api8-FITC] | – | – | – | – | – | – | ~3 folds
11 | Oct-Aib^1-Gly-Leu-Leu^4-Gly-Gly-Leu-Aib^8-Gly-Ile-Leu^11-NH-(CH2)2-NH-FITC [Leu4-FITC] | – | – | – | – | – | – | about 5 folds
